Data reported in PubChem BioAssay (NCI).
“And” between values parts separate entries of the source, which are not always exact repeats. Equal entries are not always repeated.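 Values below derive from 48-hour exposures of cells grown in 96-well plates, with endpoints linearly interpolated between the two concentrations bracketing the appropriate inhibition level. Abbreviation: GI50, concentration required for 50% inhibition of growth. TGI marks complete inhibition of growth.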 *1 amine or outer side, *2 acyl side, *3 side chain or, on linkers, in order; H or OH if unused. Where a SMILES comes first, the peptide text is derived from it. Bridges are numbered along the chain shown (N, C = ends). [ ]: non-standard residue; d: D form. The star is where a group is joined. ξ: configuration not given here. X4 = CCC(C)C(N[*:1])C(O)CC(=O)O[C@H](C(=O)C(C)C(=O)[*:2])C(C)C; NMeY = CN[C@@H](Cc1ccc(O)cc1)C(=O)O; ξNMeL = CNC(CC(C)C)C(=O)O; Cbz = O=C(OCc1ccccc1)*; Boc = CC(C)(C)OC(=O)*; Aib = CC(C)(N)C(=O)O; ξT = CC(O)C(N)C(=O)O; OBn = c1ccc(CO*)cc1; OtBu = CC(C)(C)O*; βAla = NCCC(=O)O

Assays:
Experiment in all cases: NCI tumour cell line growth inhibition, 48 h
EKVX NSCLC = system: EKVX NSCLC
HCT-116 colon = system: HCT-116 colon
HS 578T breast = system: HS 578T breast
MDA-MB-435 = system: MDA-MB-435
NCI/ADR-RES ovarian = system: NCI/ADR-RES ovarian
OVCAR-5 ovarian = system: OVCAR-5 ovarian
OVCAR-8 ovarian = system: OVCAR-8 ovarian
SNB-75 CNS = system: SNB-75 CNS
TK-10 renal = system: TK-10 renal
CCRF-CEM leukemia = system: CCRF-CEM leukemia

Structure (SMILES) | TGI (EKVX NSCLC) [µM] | TGI (HCT-116 colon) [µM] | TGI (HS 578T breast) [µM] | TGI (MDA-MB-435) [µM] | TGI (NCI/ADR-RES ovarian) | TGI (OVCAR-5 ovarian) [µM] | TGI (OVCAR-8 ovarian) | TGI (SNB-75 CNS) | TGI (TK-10 renal) | TGI (CCRF-CEM leukemia) [µM] | GI50 (CCRF-CEM leukemia) [µM] | GI50 (OVCAR-8 ovarian) [µM] | GI50 (SNB-75 CNS) [µM] | GI50 (NCI/ADR-RES ovarian) [µM]
CC(C)(C)OC(=O)CC(NC(=O)OC(C)(C)C)C(=O)NC(CCCCNC(=O)OCc1ccccc1)C(=O)NC(C)(C)C(=O)NCCC(=O)OCc1ccccc1 (centres undefined) (Boc-D(OtBu)K(Cbz)[Aib][βAla]-OBn; configuration not given here) | > 100 | > 100 | > 100 | > 100 | > 100 µM | > 100 | > 100 µM | > 100 µM | > 100 µM | – | – | – | – | –
C/C=C/[C@H]1O[C@@](OC)([C@@H](C)[C@H](O)[C@H](C)[C@H]2OC(=O)/C(OC)=C/C(C)=C/[C@@H](C)[C@@H](O)[C@@H](C)[C@@H](O)[C@H](C)C/C(C)=C/C=C/[C@@H]2OC)CC(OC2CC(O)C(OC(N)=O)C(C)O2)[C@@H]1C (some centres undefined) | 12.8 | 0.197 | 17.9 | < 0.01 | 19.4 µM | 17 | 17.3 µM | 19.5 µM | 23.3 µM | – | – | – | – | –
CCCCSc1n/c(=C\c2ccc(N(C)C)cc2)c2nnnn12 | > 100 | > 100 | > 100 | > 100 | > 100 µM | > 100 | > 100 µM | > 100 µM | > 100 µM | – | – | – | – | –
N#CC1=CNc2sccc2S1(=O)=O | > 100 | > 100 | > 100 | > 100 | > 100 µM | > 100 | > 100 µM | > 100 µM | > 100 µM | – | – | – | – | –
CC(C)n1c(=O)n(-c2ccccc2)n(C(C)(C)C)c1=O | > 100 | > 100 | > 100 | – | > 100 µM | > 100 | > 100 µM | > 100 µM | > 100 µM | > 100 | – | – | – | –
NC(CCCCNC(=O)OCc1ccccc1)C(=O)NC(CCCCNC(=O)OCc1ccccc1)C(=O)ON1C(=O)CCC1=O (centres undefined) | > 100 | > 100 | > 100 | – | – | > 100 | > 100 µM | > 100 µM | > 100 µM | > 100 | – | – | – | –
O=C(N=Nc1ccccc1Br)NNc1ccccc1Br | – | > 100 | – | > 100 | – | > 100 | > 100 µM | > 100 µM | > 100 µM | > 100 | – | – | – | –
CCOC(=O)C(C(=O)Cc1ccccc1)c1ccccc1 (centres undefined) | > 100 | > 100 | – | – | – | > 100 | > 100 µM | > 100 µM | > 100 µM | > 100 | – | – | – | –
CSc1nncc(-c2cc3c(c(SC)n2)CCC3)n1 | > 100 | > 100 | – | > 100 | > 100 µM | > 100 | 57.1 µM | > 100 µM | > 100 µM | > 100 | – | – | – | –
COc1c/c(=C2/C=c3ccccc3=N2)[nH]/c1=C/c1[nH]c(C)cc1C | – | – | – | – | – | – | > 100 µM | > 100 µM | – | > 100 | 0.0313 | 0.0448 | 0.108 | –
COC(=O)C(COC(=O)/C=C/c1ccc(OC(C)=O)c(OC(C)=O)c1)OC(=O)/C=C/c1ccc(OC(C)=O)c(OC(C)=O)c1 (centres undefined) | 36.9 | 16.3 | > 100 | 23.9 | 50.5 µM | 36.8 | 26.4 µM | – | 32.8 µM | 50.6 | – | – | – | –
CCC(C)C1NC(=O)C(NC(=O)C(CC(C)C)N(C)C(=O)[C@@H]2CCCN2)C(C)OC(=O)[C@H](Cc2ccc(OC)cc2)N(C)C(=O)[C@@H]2CCCN2C(=O)[C@H](CC(C)C)NC(=O)C(C)C(=O)[C@H](C(C)C)OC(=O)CC1O (some centres undefined) (H-P[ξNMeL][ξT][X4]LP[NMeY](Me); ester 3-C) | 0.0474 | – | – | 0.0032 | 0.78 µM and 3.74 µM | 0.0794 | 0.0243 µM and 0.0387 µM | 0.00813 µM and 0.0191 µM | 0.027 µM and 0.141 µM | 0.0557 | – | – | – | 0.233
COC(=O)C1(C(=O)OC)N=C(C)OC1C(C)C (centres undefined) | > 100 | > 100 | – | > 100 | > 100 µM | > 100 | > 100 µM | > 100 µM | > 100 µM | > 100 | – | – | – | –
CCCCCCCCCCCCCCCCNc1nc(=O)n(C2CC(O)C(CO)O2)cc1F (centres undefined) | 30.9 | 23.5 | 38.7 | 24.6 | 27.1 µM | 47.6 | 23.9 µM | – | 27.5 µM | – | – | – | – | –
N#CCCN(CCCN(C(=O)Nc1ccccc1)c1ccccc1)C(=O)Nc1ccccc1 | > 100 | > 100 | – | > 100 | > 100 µM | > 100 | > 100 µM | > 100 µM | > 100 µM | > 100 | – | – | – | –
COc1ccc(NC2Oc3cc4c(cc3C(c3cc(OC)c(O)c(OC)c3)C2C)OCO4)cc1 (centres undefined) | – | 29.6 | – | 2.51 | 98 µM | 73.7 | 67.7 µM | 15 µM | 17.7 µM | – | – | – | – | –
O=C(NNC(=S)Nc1ccccc1)c1csc(NC(=S)NC2CCCCC2)n1 | > 100 | > 100 | – | > 100 | > 100 µM | > 100 | > 100 µM | > 100 µM | > 100 µM | > 100 | – | – | – | –
CCOC(=O)c1cn(-c2ccc(Cl)cc2)c(=O)n2c1nc1ccccc12 | > 100 | > 100 | – | > 100 | > 100 µM | > 100 | > 100 µM | > 100 µM | – | > 100 | – | – | – | –
O=C1[C@@H]2Cc3c([nH]c4ccccc34)C(C3CCCCC3)N2C(=O)[C@@H]2CCCN12 (some centres undefined) | > 100 | 74.5 | 68.7 | > 100 | 78.7 µM | > 100 | > 100 µM | – | > 100 µM | – | – | – | – | –
CC(C)(C)OC(=O)N1C(OP(=O)(Oc2ccccc2)Oc2ccccc2)=COc2cccnc21 | > 100 | > 100 | > 100 | > 100 | > 100 µM | > 100 | > 100 µM | > 100 µM | > 100 µM | – | – | – | – | –
O=C1NC(N/N=C\c2ccccc2)=N/C1=C/c1ccc(Cl)cc1 | 67.4 | 71.4 | 51.4 | > 100 | 56.6 µM | 94.1 | 49.6 µM | 42.2 µM | > 100 µM | – | – | – | – | –
OC1OC(c2ccco2)C(F)(F)C(F)(F)C1(F)F (centres undefined) | > 100 | > 100 | 76.2 | > 100 | > 100 µM | > 100 | > 100 µM | – | > 100 µM | > 100 | – | – | – | –
O=C(NCCNCCO)N/N=C/c1ccc(Cl)cc1 | – | > 100 | > 100 | > 100 | > 100 µM | > 100 | > 100 µM | > 100 µM | > 100 µM | > 100 | – | – | – | –
